Source: ChEMBL document CHEMBL1158439, “Non-isotopic dual parameter competition assay suitable for high-throughput screening of histone deacetylases” (Bioorg Med Chem Lett, 2009)

Experiments:
[1] = biological target: T1, Histone deacetylase-like amidohydrolase (Alcaligenes sp. (strain DSM 11172) (Bordetella sp. (strain FB188)), UniProt Q70I53); assay: Inhibition of Bordetella / Alcaligenes strain FB188 HDAH by fluorogenic enzyme assay; design: species or system Alcaligenaceae bacterium FB188
T1 sequence (Q70I53 whole entry): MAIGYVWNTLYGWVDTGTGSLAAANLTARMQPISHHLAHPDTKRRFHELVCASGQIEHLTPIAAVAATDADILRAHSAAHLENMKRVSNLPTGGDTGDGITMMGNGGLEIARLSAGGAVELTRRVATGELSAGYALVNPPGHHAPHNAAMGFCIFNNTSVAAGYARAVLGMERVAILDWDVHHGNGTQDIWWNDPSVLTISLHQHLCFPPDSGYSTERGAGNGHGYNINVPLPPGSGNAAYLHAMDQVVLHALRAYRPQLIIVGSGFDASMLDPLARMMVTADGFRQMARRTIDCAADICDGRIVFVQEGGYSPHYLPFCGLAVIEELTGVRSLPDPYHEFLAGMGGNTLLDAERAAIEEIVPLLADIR

[2] = Inhibition of HDAC from RT extract
[3] = biological target: T1, Histone deacetylase-like amidohydrolase (Alcaligenes sp. (strain DSM 11172) (Bordetella sp. (strain FB188)), UniProt Q70I53); assay: Displacement of Atto700-HA from Bordetella / Alcaligenes strain FB188 HDAH by fluorescence anisotropy; design: species or system Alcaligenaceae bacterium FB188
[4] = Inhibition of Bordetella / Alcaligenes strain FB188 HDAC6 by fluorogenic enzyme assay
[5] = Displacement of Atto700-HA from Bordetella / Alcaligenes strain FB188 […] by fluorescence anisotropy; design: species or system Alcaligenaceae bacterium FB188
[6] = biological target: T1, Histone deacetylase-like amidohydrolase (Alcaligenes sp. (strain DSM 11172) (Bordetella sp. (strain FB188)), UniProt Q70I53); assay: Inhibition of Bordetella / Alcaligenes strain FB188 HDAH by fluorimetric assay; design: species or system Alcaligenaceae bacterium FB188
[7] = Inhibition of Bordetella / Alcaligenes strain FB188 HDAC6 by fluorescence polarization assay; design: species or system Alcaligenaceae bacterium FB188
[8] = biological target: T1, Histone deacetylase-like amidohydrolase (Alcaligenes sp. (strain DSM 11172) (Bordetella sp. (strain FB188)), UniProt Q70I53); assay: Binding affinity to Bordetella / Alcaligenes strain FB188 HDAC by FRET assay; design: species or system Alcaligenaceae bacterium FB188

Row | Compound | IC50 [1] | IC50 [2] | Ki [3] | IC50 [4] | IC50 [5] | IC50 [6] | IC50 [7] | Ki [8]
1 | CC(/C=C/C(=O)NO)=C\[C@@H](C)C(=O)c1ccc(N(C)C)cc1 [TRICHOSTATIN] |  | 1 nM | 700 nM |  |  | 1200 nM | 17 nM | 
2 | CCCCCCCCCCCC[C@@H](C)O[C@@H]1O[C@H](CO)[C@@H](O)[C@H](O)[C@H]1O[C@@H]1O[C@H](COC(C)=O)[C@@H](O)[C@H](O)[C@H]1O | 6200 nM | > 50000 nM | 10000 nM |  | > 50000 nM |  |  | 2000 nM
3 | CCC(=O)CCCCC[C@@H]1NC(=O)[C@H]2CCCCN2C(=O)[C@H]([C@@H](C)CC)NC(=O)[C@H](Cc2cn(OC)c3ccccc23)NC1=O [APICIDIN] |  |  | 9200 nM |  |  |  | 670 nM | 
4 | CCCCCC1OC1CC#CCCCCCCCC(=O)O (configuration not stated) | 9200 nM |  | 20000 nM |  | > 20000 nM |  |  | 4300 nM

Further lines, with some results ahead:

Row | IC50 [1] | IC50 [2] | Ki [3] | IC50 [4] | IC50 [5] | IC50 [6] | Compound | IC50 [7] | Ki [8]
5 | 118000 nM | 8800 nM | > 100000 nM | > 10000 nM |  |  | Nc1ccccc1NC(=O)c1ccc(CNC(=O)OCc2cccnc2)cc1 [ENTINOSTAT] |  | 
6 | 600 nM | 600 nM | 1400 nM |  | 70 nM |  | O=C(CCCCCc1nc2cc3ccccc3cc2[nH]1)C(F)(F)F |  | 
7 | 600 nM | > 50000 nM | 1100 nM |  | > 50000 nM |  | CCC1=C(OC)C(=O)C(CCCCCCCCCCC(C)=O)=C(C)C1=O |  | 
